A short description of data set [1]: Peptide stability in simulated intestinal fluid (SIF). The data set is classed as in vitro ADME. The note with it: rank of relative stability to SIF, 1 = most stable. As for the experimental part: The relative stability for ZElan031, ZElan053 and ZElan054 was determined in simulated intestinal fluid (SIF) SIF was made by dissolving 100 mg of pancreatin (Sigma cat# P-5 1625, lot# 122H0812) in 8.4 ml of phosphate stock solution, adjusting the pH to 7.5 with 0.2N NaOH and adjusting the volume to 10 ml with water.
Peptide (3.25 mg) was dissolved in 3.25 ml of 10,000 fold diluted SIF solution at 37° C. Aliquots (0.7 ml) of the digestion solution were then withdrawn at <1 min, 1 h, 3 h, and 21 h or 24 h. The samples were quickly passed through a syringe filter (Millipore Millex-GV 0.22 μm, part# SLGV025LS, lot# H2BM95250) and 300 μL of the filtered solution was immediately injected onto a Hewlett-Packard HPLC system equipped with a C-8 column (Applied Biosystems column and guard column: column-p/n 0711-0023 Spheri-5 ODS 5 μm, 220×4.6 mm). The products were eluted at 1.5 ml/min using an acetonitrile-water gradient. The major fluorescent peaks were collected, lyopholized and identified by MS analysis.

The test system of data set [2] is P100 fractions harvested from Caco-2 cells. The experiment in a line: Binding of dansylated peptides to P100 fractions and peptide/particle correlation. The following applies: two consecutive assays; versus scrambled PAX2 control. As for the experimental part:
Binding of peptide and/or peptide-coated PLGA particles to membrane (P100) and cytosolic (S100) fractions was assessed by detection of the dansyl moiety incorporated in the peptide. Costar ninety six well ELISA plates were coated with S100 and P100 fractions (100 μg/ml in 0.05 M NaHCO3) overnight at 4° C. The plates were blocked with 0.5% bovine serum albumin in DPBS for 1 h at room temperature and washed 3 times in 1% BSA-DPBS. Peptide-coated particles or peptides were dispersed in the same buffer and added to the plates at concentrations in the range 0.0325-0.5 mg/well. […] The plates were incubated for 1 h at room temperature. The wells were washed 3 times in 1% BSA-DPBS and 100 μl of goat anti-mouse IgGλ:HRP antibody (Southern Biotechnology 1060-05; 1:10,000) was added per well. The plates were incubated for 1 h at room temperature. After washing 3 times in 1% BSA-DPBS 100 μl of TMB substrate (3,3′,5′,5-tetramethylbenzidine; Microwell Peroxidase Substrate System (Kirkegaard and Perry Laboratories 50-76-00)) was added and the optical density was measured at 650 nm at various time intervals.
Binding of dansylated peptides to P100 fractions was assessed to determine if peptide binding was predictive of peptide-coated particle binding.

The test system of data set [3] is fixed Caco-2 or C2BBe1 cells. The experiment in a line: ELISA of GST fusion proteins on fixed Caco-2 or C2BBe1 cells. It counts as binding. The following applies: Caco-2. As for the experimental part:
Fixed Caco-2, C2BBe1, and A431 cell plates were prepared by growing cells on tissue culture treated microtiter plates. When cells were confluent, plates were fixed with 10% formaldehyde, washed twice with PBS and stored with 0.5% BSA-PBS at −20° C. […] The standard ELISA procedure was followed at this point.
The standard ELISA procedure was modified as follows. GST proteins were diluted to an appropriate concentration in PBS containing 1% BSA and 0.05% Tween20 (1% BPT), titered and incubated one hour at room temperature. Following five washes an anti-GST monoclonal antibody was added (Sigma, St. Louis Clone GST-2 diluted 1:10,000 in 1% BPT) and incubated one hour. After five more washes goat anti-mouse IgG2b-HRP was added (Southern Biotechnology Associates Inc., Birmingham, Ala., diluted 1:4000 in 1% BPT) and incubated one hour. After five washes plates were developed with TMB peroxidase substrate (Kirkegard and Perry, Gaithersburg, Md.). All data is presented with background binding subtracted.
In general terms: ELISA stands for enzyme-linked immunosorbent assay.

Data set [4] relates to polarized Caco-2 monolayers. Put plainly: Transport and uptake of GST-peptide fusions across/into polarized Caco-2 monolayers (anti-GST ELISA). The following applies: 100 μg/ml GST fusion. It counts as in vitro ADME. As for the experimental part:
Transport and uptake of GST-peptide fusions and deletion derivatives across cultured polarized Caco-2 monolayers over 4 hours in HBSS buffer was examined using an anti-GST ELISA assay. In another experiment, transport and uptake of GST-peptide fusions and deletion derivatives across cultured polarized Caco-2 monolayers over 24 hours in serum-free medium (SFM) was examined using an anti-GST ELISA assay.
a) 4 h HBSS study: Transepithelial electrical flux (TER) across the Caco-2 monolayers grown on snapwells (passage 33; 23 days old) was measured to confirm monolayer integrity before beginning the experiment. The medium was removed and the cells were washed once with bHBSS. bHBSS containing 100 μM chloroquine was added and the cells were incubated for 2 h at 37° C. The bHBSS+chloroquine was replaced with 0.5 ml bHBSS containing GST-peptide fusions (100 μg/ml) and the cells were incubated as before. […] At 4 h, TER was measured, the apical medium was sampled and the apical reservoir was washed 6 times with HBSS. […]
b) 24 h SFM study: Transepithelial electrical flux (TER) across the Caco-2 monolayers grown on snapwells (passage 33; 23 days old) was measured to confirm monolayer integrity before beginning the experiment. […] After 24 hours, TER readings were taken, and samples from the basolateral and apical reservoirs were removed. […]
A general note: Caco-2 monolayers are a common model of the intestinal barrier.

In data set [5] the test system is fixed Caco-2 cells. The experiment in a line: Effect of thrombin cleavage on binding of GST-peptide fusions to fixed Caco-2 cells. The note with it: Caco-2. As for the experimental part: Binding of intact and thrombin-cleaved GST-peptide fusions to fixed Caco-2 cells was compared.
Thirty micrograms of each GST-peptide was treated with bovine thrombin (1μ/ml; 0.4 NIH units; Sigma CN.T9681) for 18 h at room temperature in 20 mM Tris-HCl pH8.0, 150 mM NaCl, 2.5 mM CaCl2. Controls were similarly treated without addition of thrombin. Ten micrograms of each GST-peptide fusion was removed for PAGE analysis, and 10 μg of fusions were added in duplicate to the fixed Caco-2 cells before 5-fold serial dilutions (1% BPT diluent). The fusions were allowed to bind for 1 h at room temperature. Following 6 washes with 1% BPT, binding was assayed by ELISA.

Data set [6] is described as follows: Crossreactive binding of GST fusions to dansylated peptides. The note with it: for crossreactive binding to ZElan024 (P31) and ZElan018 (PAX2): 0.5 μg/ml GST fusion.
Data set [7] deals with P100 membrane fraction derived from Caco-2 cells. The experiment in a line: GST-PAX2 peptides relative binding to P100 fractions. The note with it: 20 μg/ml; binding to plastic subtracted; GST-HAX42 = 1.00. As for the experimental part: The peptides and proteins were analyzed by a dansylated peptide ELISA method in which 96 well plates were coated overnight at 4° C. with 100 μl/well coating protein (normally 100 μg/ml P100 membrane fraction) in 0.05M carbonate buffer pH9.6. Nonspecific binding was blocked using 200 μl/well, 2% Marvel/PBS for 2 hours at 37° C. prior to incubation with dansylated peptides. The plates were washed three times with PBS/0.05% Tween 20 and after each subsequent incubation step. […] A buffer blank control was included to ensure that background binding to plastic was not due to the antibodies used in the assay system. […] The plates were then incubated with an anti-mouse λ-HRP conjugated antibody (Southern Biotech 1060-05) at a 1:10,000 dilution in blocking solution, 100 μl/well for 1 hour at room temperature. Plates were developed using 75 μl/well Bionostics TMB substrate and incubated for approximately 10 minutes. The developing reaction was stopped using Bionostics Red Stop solution (25 μl/well), and the optical density of the plates was read at 650 nm.
After subtraction of the GST-peptide binding to plastic from P100 binding values, the binding of GST-PAX2 peptides were represented as a ratio of GST-HAX42 binding to P100, which was given the arbitrary value of 1.00. The following ratios were determined from binding to P100 of GST-peptides at a peptide concentration of 20 μg/ml. Bold denotes positive binding to the P100 membrane fraction.

Square brackets hold non-standard residues; d marks the D form. Peptide text beside a SMILES is read from it. * marks the point of attachment. Dansyl = CN(C)c1cccc2c(S(=O)(=O)*)cccc12

Regarding `C[C@@H](O)[C@H](NC(=O)[C@@H](N)CCCCNS(=O)(=O)c1cccc2c(N(C)C)cccc12)C(=O)N[C@@H](CCCNC(=N)N)C(=O)N[C@@H](CCCCN)C(=O)N[C@@H](CO)C(=O)N[C@@H](CO)C(=O)N[C@@H](CCCNC(=N)N)C(=O)N[C@@H](CO)C(=O)N[C@@H](CC(N)=O)C(=O)N1CCC[C@H]1C(=O)N[C@@H](CCCNC(=N)N)C(=O)NCC(=O)N[C@@H](CCCNC(=N)N)C(=O)N[C@@H](CCCNC(=N)N)C(=O)N[C@@H](Cc1c[nH]cn1)C(=O)N1CCC[C@H]1C(=O)NCC(N)=O` [ZElan031] (H-K(Dansyl)TRKSSRSNPRGRRHPG-NH2), the “Rel. Stab.” value in data set [1] is 3.
For `C[C@@H](O)[C@H](NC(=O)[C@@H](N)CCCCNS(=O)(=O)c1cccc2c(N(C)C)cccc12)C(=O)N[C@H](CCCNC(=N)N)C(=O)N[C@@H](CCCCN)C(=O)N[C@@H](CO)C(=O)N[C@@H](CO)C(=O)N[C@H](CCCNC(=N)N)C(=O)N[C@@H](CO)C(=O)N[C@@H](CC(N)=O)C(=O)N1CCC[C@H]1C(=O)N[C@H](CCCNC(=N)N)C(=O)NCC(=O)N[C@H](CCCNC(=N)N)C(=O)N[C@H](CCCNC(=N)N)C(=O)N[C@@H](Cc1c[nH]cn1)C(=O)N1CCC[C@H]1C(=O)NCC(N)=O` [ZElan053, H2N-K(dns)TrKSSrSNPrGrrHPG-CONH2] (H-K(Dansyl)T[dR]KSS[dR]SNP[dR]G[dR][dR]HPG-NH2), the “binding of dansylated peptide to P100 fractions” value in data set [2] was “binding at the highest dilution only”. In addition, in data set [1], the “Rel. Stab.” value was 1.
With `C[C@@H](O)[C@H](NC(=O)[C@@H](N)CCCCNS(=O)(=O)c1cccc2c(N(C)C)cccc12)C(=O)N[C@@H](CCCNC(=N)N)C(=O)N[C@@H](CCCCN)C(=O)N[C@@H](CO)C(=O)N[C@@H](CO)C(=O)N[C@H](CCCNC(=N)N)C(=O)N[C@@H](CO)C(=O)N[C@@H](CC(N)=O)C(=O)N1CCC[C@H]1C(=O)N[C@@H](CCCNC(=N)N)C(=O)NCC(=O)N[C@H](CCCNC(=N)N)C(=O)N[C@@H](CCCNC(=N)N)C(=O)N[C@@H](Cc1c[nH]cn1)C(=O)N1CCC[C@H]1C(=O)NCC(N)=O` [ZElan054, H2N-K(dns)TRKSSrSNPRGrRHPG-CONH2] (H-K(Dansyl)TRKSS[dR]SNPRG[dR]RHPG-NH2), the “Rel. Stab.” value in data set [1] was 2.
For “gst-RYKHDIGCDAGVDKKSSSVRGGCGAHSSPPRAGRGPRGTMVSRL [GST-DCX8]”, the “binding to fixed Caco-2 or C2BBe1 cells relative to GST control” value in data set [3] is “bound”. The “transport (flux) across live Caco-2 monolayers, apical to basolateral” value in data set [4] was “higher flux than GST alone”. Moreover, the “effect of thrombin cleavage on detection of binding to fixed Caco-2 cells” value in data set [5] was “significantly reduced”.
As to “gst-SARDSCPAEDGSRAVRLNGVENANTRKSSRSNPRGRRHP [GST-P31]”, the “binding to fixed Caco-2 or C2BBe1 cells relative to GST control” value in data set [3] is recorded as “bound”. In data set [6], the “crossreactive binding to ZElan024 (P31) and ZElan018 (PAX2)” value is on record as “no crossreactive binding”. Also, the “transport (flux) across live Caco-2 monolayers, apical to basolateral” value in data set [4] is given as “higher flux than GST alone”.
With “gst-SDHALGTNLRSDNAKEPGDYNCCGNGNSTGRXVFNRRRPSAIPT [GST-HAX42]”, in data set [3], the “binding to fixed Caco-2 or C2BBe1 cells relative to GST control” value is reported as “weak to moderate binding”. In addition, the “crossreactivity to ZElan018 (PAX2) and ZElan021 (HAX42)” value in data set [6] (5 μg/ml GST fusion) is reported as “exhibited crossreactivity”. The “Value: binding to P100 as a ratio of GST-HAX42 binding” value (from here on “Value: binding to P100 as a ratio”) in data set [7] is on record as 1.00.
Consider “gst-STPPSREAYSRPYSVDSDSDTNAKHSSHNRRLRTRSRPN [GST-PAX2]”, for which the “binding to fixed Caco-2 or C2BBe1 cells relative to GST control” value in data set [3] was “bound”. The “crossreactive binding to ZElan024 (P31) and ZElan018 (PAX2)” value in data set [6] is reported as “no crossreactive binding”. Moreover, the “Value: binding to P100 as a ratio” value in data set [7] came out at 1.79.
On to gst-TNAKHSSHNRRLRTRSRPN [GST-106], for which the “binding of truncated GST fusion compared with full-length, fixed Caco-2 cells” value in data set [3] is listed as “bound similarly to full-length PAX2”. Also, the “effect of thrombin cleavage on detection of binding to fixed Caco-2 cells” value in data set [5] was “significantly reduced”. Also, in data set [7], the “Value: binding to P100 as a ratio” value is on record as 2.71.
